Source: patent publication US20140057915A1, “KINASE INHIBITORS” (TOPIVERT PHARMA LIMITED, priority 2012, published 2014)
pIC50: −log10 of the molar value.

Tests used:
[1] = target: Syk (Homo sapiens, UniProt P43405); test: Syk enzyme inhibition (FRET); format: biochemical
How it was run: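 2 hr RT enzyme + cpd (added solns 4/0.4/0.04/0.004 μg/mL); + FRET peptide (8 μM soln) + ATP soln (c-Src 800 μM, Syk 60 μM), 1 hr; protease development 1 hr; read donor/acceptor emission ratio.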

[2] = target: GSK3α (Homo sapiens, UniProt P49840); test: GSK 3α enzyme inhibition (FRET), Method 2; format: biochemical; conditions: Table 4a2, different laboratory
[3] = system: IL-8 release, PBMCs; test: LPS-induced IL-8 release in PBMC cells; format: cell-based; conditions: Homo sapiens, LPS stimulated, read-out: IC50 Values for Inhibition of Cytokine Release, PBMCs, IL-8
How it was run: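 PBMCs from healthy donors pretreated with compound for 2 h, then stimulated with 1 ng/ml LPS (E. coli 0111:B4) for 24 h at 37 °C, 5% CO2. Supernatant IL-8 and TNFα measured by sandwich ELISA with fluorescence read-out.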

[4] = system: IL-2 release, PBMCs; test: IL-2 release in CD3/CD28 stimulated PBMC cells; format: cell-based; conditions: Homo sapiens, read-out: IC50 Values for Inhibition of Cytokine Release, PBMCs, IL-2
[5] = system: IFN gamma release, PBMCs; test: IFN gamma release in CD3/CD28 stimulated PBMC cells; format: cell-based; conditions: Homo sapiens, read-out: IC50 Values for Inhibition of Cytokine Release, PBMCs, IFNγ
[6] = system: IL-8 release, HT29 cells; test: IL-1β-induced IL-8 release in HT29 cells; format: cell-based; conditions: Homo sapiens, HT-29; IL-1β stimulated; read-out: IC50 Values for Inhibition of Cytokine Release, HT29 cells, IL-8
Procedure: (d) IL-1β-Induced IL-8 Release in HT29 Cells
HT29 cells, a human colon adenocarcinoma cell line, are plated in a 96 well plate (24 hrs) and pre-treated with compounds at the desired concentration for 2 hours before addition of 5 ng/ml of IL-1β (Abeam) for 24 hours, Supernatants are harvested for IL-8 quantification by Sandwich ELISA (Duo-set, R&D System). The IC50 is determined from the dose response curve.

[7] = system: ICAM-1 expression, BEAS2B cells; test: Poly I:C-induced ICAM-1 expression in BEAS2B cells; format: cell-based; conditions: Homo sapiens, BEAS-2B; read-out: Poly IC induced ICAM1 in BEAS2B, IC50
How it was run: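 BEAS2B human bronchial epithelial cells pre-incubated 2 h with compound, then transfected with poly I:C (1 μg/mL) plus Oligofectamine. After 18 h, cell-surface ICAM-1 read by cell-based ELISA (A450–655), normalised to Crystal Violet cell number (A595); inhibition calculated against vehicle control at each concentration.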

[8] = Table 4a2, different laboratory

Sequence of GSK3α (P49840 whole entry): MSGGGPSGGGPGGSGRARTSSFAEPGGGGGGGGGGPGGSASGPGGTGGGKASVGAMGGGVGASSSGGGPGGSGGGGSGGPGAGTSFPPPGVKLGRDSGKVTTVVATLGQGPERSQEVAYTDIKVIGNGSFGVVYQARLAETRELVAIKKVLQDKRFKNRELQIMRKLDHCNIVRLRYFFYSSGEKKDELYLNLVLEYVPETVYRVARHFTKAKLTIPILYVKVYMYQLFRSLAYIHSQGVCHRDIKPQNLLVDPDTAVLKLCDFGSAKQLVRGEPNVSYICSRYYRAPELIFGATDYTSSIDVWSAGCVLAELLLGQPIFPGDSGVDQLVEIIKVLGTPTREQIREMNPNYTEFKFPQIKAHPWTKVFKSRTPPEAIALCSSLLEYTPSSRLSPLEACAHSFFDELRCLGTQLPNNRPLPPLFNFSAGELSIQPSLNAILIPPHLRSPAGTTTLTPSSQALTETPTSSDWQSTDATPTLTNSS

pIC50 ([1]; Table 4a1)	pIC50 [1, 8]	pIC50 [2]	pIC50 [6]	SMILES	pIC50 [3]	pIC50 [4]	pIC50 [5]	pIC50 [7]
	7.66	4.95	8.27	C#Cc1cc(Nc2nccc(Oc3ccc(NC(=O)Nc4cc(C(C)C)nn4-c4ccc(C)cc4)c4ccccc34)n2)cc(C(=O)NCCN2CCOCC2)c1 [Example 46, 3-ethynyl-5-((4-((4-(3-(3-isopropyl-1-(p-tolyl)-1H-pyrazol-5-yl)ureido)naphthalen-1-yl)oxy)pyrimidin-2-yl)amino)-N-(2-morpholinoethyl)benzamide]	8.96	7.23	8.57	
7.49		≤ 4.88		COc1cc(Nc2nccc(Oc3ccc(NC(=O)Nc4cc(C5CC5)nn4-c4ccc(C)cc4)c4ccccc34)n2)cc(C(=O)NCCN2CCOCC2)c1 [Example 50, 3-((4-((4-(3-(3-cyclopropyl-1-(p-tolyl)-1H-pyrazol-5-yl)ureido)naphthalen-1-yl)oxy)pyrimidin-2-yl)amino)-5-methoxy-N-(2-morpholinoethyl)benzamide]	8.14			7.78
6.19				COc1cc(Nc2nccc(Oc3ccc(NC(=O)Nc4cc(C5(C)CC5)nn4-c4ccc(C)cc4)c4ccccc34)n2)cc(C(=O)NCCN2CCOCC2)c1 [Example 51, 3-methoxy-5-((4-((4-(3-(3-(1-methylcyclopropyl)-1-(p-tolyl)-1H-pyrazol-5-yl)ureido)naphthalen-1-yl)oxy)pyrimidin-2-yl)amino)-N-(2-morpholinoethyl)benzamide]				8.44
8.52		5.14		COc1ccc(-n2nc(C(C)C)cc2NC(=O)Nc2ccc(Oc3ccnc(Nc4cc(OC)cc(C(=O)NCCN5CCOCC5)c4)n3)c3ccccc23)cc1 [Example 53, 3-((4-((4-(3-(3-isopropyl-1-(4-methoxyphenyl)-1H-pyrazol-5-yl)ureido)naphthalen-1-yl)oxy)pyrimidin-2-yl)amino)-5-methoxy-N-(2-morpholinoethyl)benzamide]	8.51	7.36		8.40
	7.60	≤ 4.90	8.21	C#Cc1cc(Nc2nccc(Oc3ccc(NC(=O)Nc4cc(C(C)(C)C)nn4-c4ccc(N(C)C)cc4)c4ccccc34)n2)cc(C(=O)NCCN2CCOCC2)c1 [Example 80, 3-((4-((4-(3-(3-(tert-Butyl)-1-(4-(dimethylamino)phenyl)-1H-pyrazol-5-yl)ureido)naphthalen-1-yl)oxy)pyrimidin-2-yl)amino)-5-ethynyl-N-(2-morpholinoethyl)-benzamide]	8.82	8.64	8.74	

More lines, now with the values behind:

SMILES	pIC50 ([1]; Table 4a1)	pIC50 [1, 8]	pIC50 [2]	pIC50 [6]	pIC50 [3]	pIC50 [4]	pIC50 [5]	pIC50 [7]
COc1cc(Nc2cc(Oc3ccc(NC(=O)Nc4cc(C(C)(C)C)nn4-c4ccc(C)cc4)c4ccccc34)ccn2)cc(C(=O)NCCN2CCOCC2)c1 [Example 1, 3-((4-((4-(3-(3-(tert-Butyl)-1-(p-tolyl)-1H-pyrazol-5-yl)ureido)naphthalen-1-yl)oxy)pyridin-2-yl)amino)-5-methoxy-N-(2-morpholinoethyl)benzamide]	8.00	7.18	5.16	7.99	8.62	7.07	8.52	8.47
Cc1ccc(-n2nc(C(C)C)cc2NC(=O)Nc2ccc(Oc3ccnc(Nc4cc(C(=O)NCCN5CCOCC5)cc(C(F)(F)F)c4)n3)c3ccccc23)cc1 [Example 7, 3-((4-((4-(3-(3-isopropyl-1-(p-tolyl)-1H-pyrazol-5-yl)ureido)naphthalen-1-yl)oxy)pyrimidin-2-yl)amino)-N-(2-morpholinoethyl)-5-(trifluoromethyl)benzamide]			4.92		8.62	6.59		8.82
COc1cc(Nc2nccc(Oc3ccc(NC(=O)Nc4cc(C(C)C)nn4-c4ccc(C)cc4)c4ccccc34)n2)cc(C(=O)NCCN2CCOCC2)c1 [Example 8, 3-((4-((4-(3-(3-Isopropyl-1-(p-tolyl)-1H-pyrazol-5-yl)ureido)naphthalen-1-yl)oxy)pyrimidin-2-yl)amino)-5-methoxy-N-(2-morpholinoethyl)benzamide]	8.52	6.65	≤ 4.88	8.39	8.74	7.45		8.96
COc1cc(Nc2nccc(Oc3ccc(NC(=O)Nc4cc(C(F)(F)C(F)(F)F)nn4-c4ccc(C)cc4)c4ccccc34)n2)cc(C(=O)NCCN2CCOCC2)c1 [Example 9]			5.19		8.64	6.88	8.14	8.16
COCCNC(=O)c1cc(Nc2nccc(Oc3ccc(NC(=O)Nc4cc(C(C)C)nn4-c4ccc(OC)cc4)c4ccccc34)n2)cc(OC)c1 [Example 11, 3-((4-((4-(3-(3-Isopropyl-1-(4-methoxyphenyl)-1H-pyrazol-5-yl)ureido)naphthalen-1-yl)oxy)pyrimidin-2-yl)amino)-5-methoxy-N-(2-methoxyethyl)benzamide]	7.12	6.90	5.00		8.52	7.56		8.92
COc1ccc(-n2nc(C3(C)COC3)cc2NC(=O)Nc2ccc(Oc3ccnc(Nc4cccc(C(=O)NCCN5CCOCC5)c4)n3)c3ccccc23)cc1 [Example 23, 3-((4-((4-(3-(1-(4-methoxyphenyl)-3-(3-methyloxetan-3-yl)-1H-pyrazol-5-yl)ureido)naphthalen-1-yl)oxy)pyrimidin-2-yl)amino)-N-(2-morpholinoethyl)benzamide]	6.69							7.56
COc1ccc(-n2nc(C(C)(C)C)cc2NC(=O)Nc2ccc(Oc3ccnc(Nc4cc(Br)cc(C(N)=O)c4)n3)c3ccccc23)cc1 [Example 42, 3-bromo-5-((4-((4-(3-(3-(tert-butyl)-1-(4-methoxyphenyl)-1H-pyrazol-5-yl)ureido)naphthalen-1-yl)oxy)pyrimidin-2-yl)amino)benzamide]	7.17							8.64
C#Cc1cc(Nc2nccc(Oc3ccc(NC(=O)Nc4cc(C(C)(C)C)nn4-c4ccc(OC)cc4)c4ccccc34)n2)cc(C(=O)NCCN2CCOCC2)c1 [Example 77, 3-((4-((4-(3-(3-(tert-Butyl)-1-(4-methoxyphenyl)-1H-pyrazol-5-yl)ureido)-naphthalen-1-yl)oxy)pyrimidin-2-yl)amino)-5-ethynyl-N-(2-morpholinoethyl)benzamide]		7.74	5.23	8.70	8.96	7.37	9.10	
